Measurements from patent US5865792A, “Reduction of skin irritation during electrotransport delivery” (priority 1997, dated 1999).

How the values were obtained:
skin [1] = assay: skin irritation (α), electrotransport of placebo drug (sodium chloride), hydrocortisone in the cathodic reservoir (Example IV); type: in vivo
Excerpt: In vivo electrically assisted delivery of a placebo drug (sodium chloride) with various liquid solvents was accomplished both with and without co-delivery of an anti-inflammatory agent (hydrocortisone) using electrotransport systems substantially similar to those described in Example II. Four different electrotransport system configurations were constructed.
The anode material used in each of the systems was silver foil and the cathode material used in each of the systems was silver chloride. The size of the gels and the applied current levels were the same as in Example II.

human skin [2] = assay: skin irritation (α), electrotransport of placebo drug (sodium chloride) in 50% propylene glycol with and without hydrocortisone (Example V); type: in vivo, human volunteer; settings: FIG. 8; 0.5% (w/v) hydrocortisone in 50% propylene glycol, cathodic and anodic reservoirs; 100 μA/cm^2, 3 h
Procedure: In vivo electrically assisted delivery of a placebo drug (sodium chloride), with a liquid solvent in which hydrocortisone has good solubility, was accomplished both with and without co-delivery of hydrocortisone using electrotransport systems substantially similar to those described in Example II, and having anodic/cathodic reservoir gels of the following formulations: […]
An electrotransport system was constructed having anodic and cathodic reservoirs comprised of 350 μl of gel formulation I. This system was applied on the left forearm of a human volunteer. The skin contact area of each electrode gel was 2 cm^2. The anode material used in the systems was silver foil and the cathode material used in each of the systems was silver chloride. The electrodes were connected to a galvanostat preset to deliver a constant current of 100 μA/cm^2. Simultaneously another electrotransport system with similar size and current density, but whose anodic and cathodic reservoirs were comprised of 350 μl of gel formulation II was applied on the right forearm of the same volunteer. The systems were worn for 3 hours. After removal, skin irritation (α) was monitored using the Minolta Chroma Meter.

human skin [3] = system: human skin
skin [4] = settings: prolonged exposure; cited from earlier work
skin [5] = settings: otherwise equivalent reservoirs; cited from earlier work
[6] = metoclopramide blood plasma concentrations during/after electrotransport delivery with and without hydrocortisone (HPLC); type: in vivo, human volunteers; settings: FIG. 3; 10% MCP, 0.5% HC in anodic reservoir vs MCP alone; 100 μA/cm^2, 4 h
Excerpt: MCP is a water soluble drug salt.

[7] = water; cited from earlier work

| Structure (SMILES) | reduction of erythema of the skin in contact with the cathodic reservoir (skin [1]; 0.25 mg/mL hydrocortisone in water) | reddening of the skin in contact with the cathodic reservoir (skin [1]; FIG. 7, system 1: 5 mg/mL hydrocortisone, 40% ethanol, vs 40% ethanol without hydrocortisone) | erythema values, System 3 vs System 4 (skin [1]; System 3: 0.25 mg/mL hydrocortisone in water, no ethanol) | erythema compared to reservoirs containing no hydrocortisone (human skin [2]) | skin irritation (α) vs. anodic reservoirs containing no hydrocortisone (human skin [3]; FIG. 2, 0.5% HC with 10% MCP in anodic reservoir, 4 h wear, 1, 4, 24, 48 h after removal) | local side effects such as skin thinning (skin [4]) | electroosmotic flux from a cathodic reservoir vs. equivalent anodic reservoir (skin [5]) | effect of addition of hydrocortisone on delivery of metoclopramide into the bloodstream [6] | skin irritation caused by the drug (human skin [3]; in vivo) | solubility in words [7] |
| --- | --- | --- | --- | --- | --- | --- | --- | --- | --- | --- |
| C[C@]12CCC(=O)C=C1CC[C@@H]1[C@@H]2C(O)C[C@@]2(C)[C@H]1CC[C@]2(O)C(=O)CO (stereo partly shown) [hydrocortisone, 11,17,21-trihydroxypregn-4-ene-3,20-dione] | insufficient to reduce erythema | significant reduction in the reddening of the skin | substantially the same (i.e., at most only about one α unit apart) | substantially less erythema | less skin irritation | does not result in unacceptable local side effects such as skin thinning | substantially lower |  |  |  |
| CCN(CC)CCNC(=O)c1cc(Cl)c(N)cc1OC [metoclopramide HCI] |  |  |  |  |  |  |  | does not significantly affect the delivery of metoclopramide into the bloodstream | skin irritating drug | water soluble |
